Entries after “also recorded” stand apart in the source; their conditions may differ. Read-outs that look alike come from different tables or passages of the source.
Key:
[1] = biological target: T1, BCR-ABL1 (Homo sapiens, UniProt P00519); test: BCR-ABL1 / c-ABL1 degradation in K562 cells by immunoblot; type: cell-based; set-up: K562 cell lines were purchased from ATCC; BCR N-terminal portion (fusion partner, human BCR P11274); host or cells: K562; the other entry of the earlier key: BCR (P11274, Breakpoint cluster region protein); conditions: for BCR-Abl and c-Abl levels on co-treatment with GMB-805 (Compound 19) / BCR-ABL1 and c-ABL1 levels on co-treatment with Compound 10 / DC50: K562 cells; for BCR-Abl and c-Abl levels on co-treatment with GMB-805 (Compound 19): 1 μM GMB-805, 8 hours; for BCR-ABL1 and c-ABL1 levels on co-treatment with Compound 10: 8 hour treatment, compared to Compound 10 alone
Description: The cells were collected at 300 g for 3 min. […] The total protein concentrations were determined by Pierce BCA Protein Assay and 30-50 μg of protein was loaded onto 10% Tris-Glycine gels. After standard gel electrophoresis, the separated proteins were transferred to nitrocellulose by wet transfer. The immunoblots were then processed by standard procedures and incubated with the respective antibodies. Band intensities were quantified by Bio-Rad's Image Lab software.
Gels were transferred and then blocked in TBS-Tween buffer with 5% BSA. […] Following incubation with appropriate HRP-conjugated secondary antibodies, membranes were imaged on a BioRad ChemiDoc using BioRad Clarity Western ECL substrate and Thermo Super Signal West Femto Maximum Sensitivity substrate.
(§1) Following centrifugation at 13,000×g for 15 minutes at 4° C. to pellet insoluble materials, the protein concentrations of the supernatants were quantitated by BCA assay (Thermo Fisher Scientific). Protein samples were resolved by SDS-PAGE, transferred to nitrocellulose, blocked with 5% non-fat milk and probed with the marked antibodies. Immunoblots were developed using enhanced chemiluminescence and visualized using a Bio-Rad Chemi-Doc MP Imaging System with Image Lab v.5.2.1 software (Bio-Rad Laboratories).
Target sequence in this assay (P00519 with tags, fused parts or gaps): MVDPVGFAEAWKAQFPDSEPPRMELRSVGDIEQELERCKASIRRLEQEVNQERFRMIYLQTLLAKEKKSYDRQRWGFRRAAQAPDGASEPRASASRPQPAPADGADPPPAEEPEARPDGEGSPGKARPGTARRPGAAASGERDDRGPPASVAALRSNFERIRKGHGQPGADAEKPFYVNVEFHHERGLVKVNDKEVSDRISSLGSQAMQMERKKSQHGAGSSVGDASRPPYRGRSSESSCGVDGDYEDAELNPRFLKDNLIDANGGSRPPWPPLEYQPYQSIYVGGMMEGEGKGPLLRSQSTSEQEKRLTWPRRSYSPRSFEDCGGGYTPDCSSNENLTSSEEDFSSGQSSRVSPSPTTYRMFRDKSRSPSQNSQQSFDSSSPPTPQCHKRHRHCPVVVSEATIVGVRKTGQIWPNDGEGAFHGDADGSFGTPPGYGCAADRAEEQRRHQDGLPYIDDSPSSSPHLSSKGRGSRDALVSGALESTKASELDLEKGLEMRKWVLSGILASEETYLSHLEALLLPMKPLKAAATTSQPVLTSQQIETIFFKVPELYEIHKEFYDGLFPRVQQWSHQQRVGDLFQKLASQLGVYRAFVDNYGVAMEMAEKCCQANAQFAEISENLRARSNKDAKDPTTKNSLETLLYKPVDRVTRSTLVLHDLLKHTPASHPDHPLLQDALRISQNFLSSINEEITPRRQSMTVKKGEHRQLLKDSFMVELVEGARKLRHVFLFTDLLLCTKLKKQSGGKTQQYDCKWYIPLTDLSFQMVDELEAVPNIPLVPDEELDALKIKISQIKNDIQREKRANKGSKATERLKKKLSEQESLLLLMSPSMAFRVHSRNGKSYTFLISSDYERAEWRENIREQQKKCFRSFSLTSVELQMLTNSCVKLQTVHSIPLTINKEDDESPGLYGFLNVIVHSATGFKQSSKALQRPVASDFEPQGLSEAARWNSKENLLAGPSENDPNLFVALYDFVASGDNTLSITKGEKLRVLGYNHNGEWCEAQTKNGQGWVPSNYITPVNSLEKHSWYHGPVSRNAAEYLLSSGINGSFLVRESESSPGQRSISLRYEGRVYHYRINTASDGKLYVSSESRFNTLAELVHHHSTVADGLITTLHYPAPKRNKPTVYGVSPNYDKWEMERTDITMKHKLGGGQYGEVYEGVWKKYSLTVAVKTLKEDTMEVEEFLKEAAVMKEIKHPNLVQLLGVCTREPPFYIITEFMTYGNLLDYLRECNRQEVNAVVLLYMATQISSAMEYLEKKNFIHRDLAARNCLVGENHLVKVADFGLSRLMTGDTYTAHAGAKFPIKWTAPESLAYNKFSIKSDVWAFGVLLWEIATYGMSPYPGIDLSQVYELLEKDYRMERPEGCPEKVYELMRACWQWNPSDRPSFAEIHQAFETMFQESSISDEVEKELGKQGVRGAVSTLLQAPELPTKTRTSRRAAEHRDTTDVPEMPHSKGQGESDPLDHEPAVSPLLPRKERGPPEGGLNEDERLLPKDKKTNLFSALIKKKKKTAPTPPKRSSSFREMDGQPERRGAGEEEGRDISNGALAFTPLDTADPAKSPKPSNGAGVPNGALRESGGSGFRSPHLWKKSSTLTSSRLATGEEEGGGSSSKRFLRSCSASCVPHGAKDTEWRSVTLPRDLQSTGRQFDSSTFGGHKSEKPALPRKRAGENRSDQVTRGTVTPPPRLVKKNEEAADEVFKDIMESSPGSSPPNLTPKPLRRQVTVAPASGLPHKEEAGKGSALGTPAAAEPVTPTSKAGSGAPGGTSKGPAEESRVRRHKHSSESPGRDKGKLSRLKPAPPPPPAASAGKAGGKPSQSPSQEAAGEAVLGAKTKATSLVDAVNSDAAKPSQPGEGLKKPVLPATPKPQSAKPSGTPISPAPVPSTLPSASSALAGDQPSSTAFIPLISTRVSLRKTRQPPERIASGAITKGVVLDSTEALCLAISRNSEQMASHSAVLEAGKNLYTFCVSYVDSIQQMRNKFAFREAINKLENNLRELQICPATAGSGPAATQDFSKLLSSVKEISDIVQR

[2] = biological target: T1, BCR-ABL1; test: Immunoblot of co-treatment with ponatinib in Ba/F3 BCR-ABL1 wild-type cells; type: cell-based, murine; set-up: BCR N-terminal portion (fusion partner, BCR P11274); expressed in transfected cells; the other entry of the earlier key: BCR (P11274, Breakpoint cluster region protein); conditions: overnight co-treatment with ponatinib
Source text: (§2) Samples were lysed in 1× Cell Signaling lysis buffer (#9803S) supplemented with PMSF and complete mini tablets (Sigma #11836153001). Lysates were quantified and separated on 4-15% Tris-glycine polyacrylamide gels. Gels were transferred and then blocked in TBS-Tween buffer with 5% BSA. The following primary antibodies were used: tABL, BD #554148 anti-mouse 1:400; c-ABL1, SantaCruz #24-11 anti-mouse 1:1000; B-tubulin, Millipore #05-66-MI anti-mouse 1:5000; pSTAT5, # CS9351S anti-rabbit 1:1000 pSTAT5, # CS4322 anti-rabbit 1:1000; pBCR-Abl, # CS2865 anti-rabbit 1:1000; pCRKL, # CS491 anti-rabbit 1:1000; pAKT, # CS4060 anti-rabbit 1:1000; pERK, # CS4695 anti-rabbit 1:1000; pSHP-2, Abcam #62322 anti-rabbit 1:1000; pGAB1, # CS3233 anti-rabbit 1:1000; pGAB2, # CS3882 anti-rabbit 1:1000; pSHC, # CS2434 anti-rabbit 1:1000; VHL, # CS68547 anti-rabbit 1:1000; pCRKL, # CS3181S anti-rabbit 1:1000. Following incubation with appropriate HRP-conjugated secondary antibodies, membranes were imaged on a BioRad ChemiDoc using BioRad Clarity Western ECL substrate and Thermo Super Signal West Femto Maximum Sensitivity substrate.
Target sequence in this assay (P00519 28-1130 limits assumed): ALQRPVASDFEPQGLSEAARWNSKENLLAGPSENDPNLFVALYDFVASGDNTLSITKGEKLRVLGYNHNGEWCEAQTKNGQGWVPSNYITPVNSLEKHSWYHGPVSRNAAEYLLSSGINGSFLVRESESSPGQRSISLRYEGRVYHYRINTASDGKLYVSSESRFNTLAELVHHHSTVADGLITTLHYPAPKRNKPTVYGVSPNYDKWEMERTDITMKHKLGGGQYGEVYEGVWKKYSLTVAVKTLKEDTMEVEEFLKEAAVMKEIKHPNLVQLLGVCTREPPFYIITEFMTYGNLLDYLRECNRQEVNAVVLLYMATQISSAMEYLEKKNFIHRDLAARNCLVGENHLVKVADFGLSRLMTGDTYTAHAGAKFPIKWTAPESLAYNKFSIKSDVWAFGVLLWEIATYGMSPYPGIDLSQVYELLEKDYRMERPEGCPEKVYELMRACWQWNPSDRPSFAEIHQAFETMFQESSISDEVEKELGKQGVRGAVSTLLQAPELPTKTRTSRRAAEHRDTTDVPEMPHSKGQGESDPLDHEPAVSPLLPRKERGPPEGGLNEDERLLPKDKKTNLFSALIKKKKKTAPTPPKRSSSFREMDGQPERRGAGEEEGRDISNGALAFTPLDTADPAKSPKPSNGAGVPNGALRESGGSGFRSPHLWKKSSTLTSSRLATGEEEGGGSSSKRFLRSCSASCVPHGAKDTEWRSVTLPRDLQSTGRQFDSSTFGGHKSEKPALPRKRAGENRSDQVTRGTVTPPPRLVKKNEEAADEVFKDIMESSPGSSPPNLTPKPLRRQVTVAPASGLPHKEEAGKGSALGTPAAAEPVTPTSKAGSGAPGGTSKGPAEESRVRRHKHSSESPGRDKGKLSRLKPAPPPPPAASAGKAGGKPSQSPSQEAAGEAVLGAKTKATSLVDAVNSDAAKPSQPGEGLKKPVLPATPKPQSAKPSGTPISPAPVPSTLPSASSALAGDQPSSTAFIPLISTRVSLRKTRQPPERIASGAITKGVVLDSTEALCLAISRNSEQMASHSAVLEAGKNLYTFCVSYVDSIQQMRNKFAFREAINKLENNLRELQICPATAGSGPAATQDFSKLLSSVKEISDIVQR

[3] = test system: K562 cells; test: K562 cell proliferation assay; type: cell-based; conditions: Homo sapiens
Description: (§3) Cell lines and patient samples were exposed to dose ranges of single or combination agents and incubated for 3 days at 37° C., 5% CO2 and subjected to a CellTiter 96 AQueous One solution cell proliferation assay (Promega). IC50 values calculated and analyzed using Prism 6 software (GraphPad).

[4] = test system: Ba/F3 BCR-ABL1 G250E cells; test: Cell proliferation of Ba/F3 cells expressing BCR-ABL1 G250E; type: cell-based, murine; conditions: versus wild-type BCR-ABL1
Description: as §3

[5] = test system: primary CML CD34+ patient cells; test: Proliferation of primary CML patient CD34+ cells; type: cell-based, human; conditions: CD34+ cells from newly diagnosed CML patients
Description: as §3

[6] = test system: primary CML CD34+ patient cells; test: Apoptosis (Annexin V) in primary CML patient cells; type: cell-based, human; conditions: patient 1; no appreciable difference between PROTAC and diastereomer control
Description: Mononuclear cells (MNCs) were isolated from either peripheral blood, bone marrow or leukapheresis samples by Ficoll gradient. MNCs were then treated with ammonium-chloride-potassium (ACK) lysis buffer to remove any residual red blood cells. […] For cell proliferation assays, samples were thawed and cultured in R10. For immunoblot assays, samples were thawed and cultured in IMDM with 40 μg/mL low-density lipoprotein (LDL, Stem Cell), 20% FBS, and 100 μM beta-mercaptaethanol (Sigma).
Sorted samples were recovered overnight in culture in IMDM with 40 μg/mL low-density lipoprotein (LDL, Stem Cell), 20% FBS, and 100 μM beta-mercaptaethanol (Sigma).

[7] = test system: BCR-ABL1 transformed Ba/F3 cells; test: Cell proliferation of BCR-ABL1 transformed Ba/F3 cells (MTS); type: cell-based, murine
Description: as §3
Plates were incubated at 37° C. for 72 h and analyzed by standard MTS-based colorimetric assay. Non-linear regression curve-fit analysis and IC50 calculations were performed using Graphpad Prism software.

[8] = biological target: T1, BCR-ABL1; test: BCR-ABL1 degradation in primary patient LSCs (CD34+CD38-) by immunoblot; type: cell-based; set-up: induce degradation of both BCR-ABL1 and ABL1 in primary patient LSCs; BCR N-terminal portion (fusion partner, human BCR P11274); endogenous in cells; host or cells: primary CML patient CD34+/CD38- cells (patient 1); the other entry of the earlier key: BCR (P11274, Breakpoint cluster region protein); conditions: CD34+/CD38- cells, patient 1, overnight
Description: MNCs isolated from specimens via ficoll, then selected for CD34+ by MACs column. Frozen viables were thawed and cultured in IMDM+40 ug/mL LDL+20% FBS+100 uM BME overnight. Sorted using FACS Aria III, stained with CD34 (BD348801) and CD38 (BD555461).
Cells were lysed in Cell Signaling lysis buffer supplemented with PMSF and Complete Mini protease inhibitor tablets. Protein concentration assessed via BCA assay, ran on 4-15% tris-glycine polyacrylamide gel at 180V for 1 h, transferred overnight at 25V, blocked with 5% BSA in TBST for 1 h and incubated at 4 degree in following primary antibodies.
Target sequence in this assay (P00519 28-1130 limits assumed): as above

[9] = test system: Ba/F3 BCR-ABL1 T315I cells; test: Cell proliferation of Ba/F3 cells expressing BCR-ABL1 T315I; type: cell-based, murine; conditions: versus wild-type BCR-ABL1
Description: as §3

[10] = biological target: T1, BCR-ABL1; test: BCR-ABL1 signaling and scaffolding in K562 cells (RPPA, immunoblot); type: cell-based; set-up: K562 cell lines were purchased from ATCC; BCR N-terminal portion (fusion partner, human BCR P11274); host or cells: K562; the other entry of the earlier key: BCR (P11274, Breakpoint cluster region protein)
Source text: as §2
Target sequence in this assay (P00519 with tags, fused parts or gaps): as the sequence (P00519 with tags, fused parts or gaps) above
RPPA was performed in the MDACC CCSG core as described at http://www.mdanderson.org/education-and-research/resources-for-professionals/scientific-resources/core-facilities-and-services/functional-proteomics-rppa-core/index.html.
as §1, with “K562 cells were treated with the indicated concentrations of compound for 24 hours, washed with PBS and then harvested in lysis buffer (50 mM Tris (pH 7.4), 150 mM NaCl, 1 mM EDTA, 0.5% NP-40, phosphatase and protease inhibitors). Following” for “Following”

[11] = test system: healthy donor CD34+ cells; test: Effect on healthy donor CD34+ cells; type: cell-based, human; conditions: proliferation and apoptosis
[12] = Pharmacokinetics in mouse; type: in vivo; conditions: 10 mg/kg IP
Description: The pharmacokinetic properties were determined at Pharmaron, China. The exemplary compound was formulated (in 5% EtOH & 5% Solutol HS15 in D5W(ESD-2)) and administered by intraperitoneal (I.P.) injection at a dosing level of 10 mg/kg. Plasma samples were collected at 0.25 hours, 0.5 hours, 1 hour, 2 hours, 4 hours, 8 hours, and 24 hours following dosing.
Acetonitrile was added to precipitate protein and the samples were vortexed for 30 second, centrifuged (4000 rpm, 15 minutes), diluted with water and the compound concentration determined by LC/MS/MS according to a standard curve.

[13] = test system: K562 cells; test: K562 xenograft model in athymic mice; type: in vivo; conditions: 200 mg/kg IP once every 24 hours, day 4-6
Description: K562 cells were implanted subcutaneously into the flank of athymic mice and tumors were allowed to develop to approx. 200 mm^3. Animals were then randomised into treatment or vehicle groups on day 1. On day 4-6, animals were either treated with exemplary compound GMB-805 (Compound 19; 200 mg/kg) or vehicle control by IP injection once every 24 hours.
All in vivo experiments were conducted in accordance with institutional guidelines and were approved by Yale Institutional Animal Care & Use Committee. Mice were housed in pathogen-free animal facilities and with access to food and water ad libitum. K562 cells in Matrigel (Corning Life Sciences) were injected subcutaneously into the flank of athymic mice (Charles River) and allowed to proliferate until tumors reached −200 mm^3 at which point mice were randomized into treatment groups and treated I.P. with vehicle or exemplary compound once a day at 200 mg/kg for 3 days. Tumors were measured via caliper and volumes calculated following equation:
where V=volume, L=Length and W=Width

In the case of CC[C@H](C)[C@H](NC(=O)[C@H]([C@@H](C)CC)N(C)C(C)=O)C(=O)N[C@H](C(=O)N[C@@H](CC(C)C)C(=O)[C@@]1(C)CO1)[C@@H](C)O [epoxomicin, reference compound], the “BCR-Abl and c-Abl levels on co-treatment with GMB-805 (Compound 19)” value [1] is reported as “restored protein concentration back to untreated levels” and the “BCR-ABL1 and c-ABL1 levels on co-treatment with Compound 10” value [1] is reported as “restored the levels of BCR-ABL1 and c-ABL1”.
With NS(=O)(=O)OC[C@@H]1C[C@@H](n2ccc3c(N[C@H]4CCc5ccccc54)ncnc32)C[C@@H]1O [MLN-4924, reference compound] the “BCR-Abl and c-Abl levels on co-treatment with GMB-805 (Compound 19)” value [1] was “able to rescue protein levels” and the “BCR-ABL1 and c-ABL1 levels on co-treatment with Compound 10” value [1] was “inhibited the degradation of BCR-ABL1 and ABL1”.
With Cc1ncsc1-c1ccc(CNC(=O)[C@@H]2C[C@@H](O)CN2C(=O)[C@@H](NC(=O)COCCOc2ccc(-c3cc(Nc4ccc(OC(F)(F)F)cc4)ncn3)cc2)C(C)(C)C)cc1 [Compound 10] the “effect of co-treatment with ponatinib (immunoblot)” value [2] was “enhanced the ability of Compound 10 to induce degradation”, the IC50 ([3]; FIG. 5B/D: K562 and Ba/F3 BCR-ABL1 cells, read-out: cell proliferation IC50) was about 1000 nM and the “anti-proliferative activity against G250E mutant” value [4] was “enhanced anti-proliferative activity”. The “potency at inhibiting proliferation relative to Compound 14” value [5] was “greater than 2 fold”, the “apoptosis in sorted progenitor (CD34+CD38+) and stem (CD34+CD38-) cells” value [6] was “induced apoptosis in the progenitor cells and to a lesser extent in the stem cells” and the IC50 ([7]; Mus musculus, BaF3, single agent, 72 h (FIG. 6A), read-out: IC50, dose response titration) was 1110 nM. The “reduction of the IC50 of imatinib by co-treatment” value ([7]; co-treatment of imatinib with 2.5 μM Compound 10) was about 3 fold, the “degradation of BCR-ABL1 and c-ABL1” value ([1]; K562 (FIG. 5A) and Ba/F3 (FIG. 5C) cells, dose- and time-dependent) was “induce the degradation of BCR-ABL1 and c-ABL1” and the Dmax ([1]; K562, read-out: Dmax (%) [cell line]) was 95%. The DC50 ([1]; read-out: DC50) was 340 nM, the “degradation of BCR-ABL1 and ABL1” value [8] was “able to induce degradation of both BCR-ABL1 and ABL1” and the “effect of T315I mutation on potency” value [9] was “had little effect on the potency of Compound 10”. The “total ABL1 protein by RPPA” value ([10]; K562, 5 μM, 8 h) was “showed a decrease in total ABL1 protein”, the “phosphorylation of GAB2 and SHC” value ([10]; K562, full serum (10% FBS)) was “able to reduce phosphorylation of GAB2 and SHC” and the “kinase activity of BCR-ABL1 (pBCR-ABL1 Tyr412, pSTAT-5)” value ([10]; K562, immunoblot, 8 h and 24 h) was “able to inhibit the kinase activity of BCR-ABL1”. For the same compound, the “phosphorylation of GAB2, SHC and STAT5” value ([10]; K562, serum-free) was “able to inhibit phosphorylation of GAB2 and SHC, as well as STAT5”.
With Cc1ccc(NC(=O)c2ccc(CN3CCN(C)CC3)cc2)cc1Nc1nccc(-c2cccnc2)n1 [imatinib] the “effect on healthy donor CD34+ cells” value [11] was “had no effect on healthy donor CD34+ cells”.
In the case of Cc1ncsc1-c1ccc(CNC(=O)[C@@H]2C[C@@H](O)CN2C(=O)[C@@H](NC(=O)COCCNc2ncc(C(=O)Nc3ccc(OC(F)(F)Cl)cc3)cc2-c2ccn[nH]2)C(C)(C)C)cc1 [Compound 19], the Cmax [12] is reported as “well over above both the DC50 and IC50”, the IC50 ([3]; K562 (FIG. 16B), read-out: antiproliferative activity IC50) is reported as 169 nM and the “toxicity or weight loss” value [13] is reported as “no toxicity or weight loss was observed; also recorded: induced no weight loss”. The tumor volume [13] was “no significant increase in tumor volume” and the DC50 ([1]; extended dose response, 24 hours (FIG. 16A), read-out: DC50 (concentration at which half maximal degradation is observed)) was 30 nM.

Reference: patent publication US20200297725A1, “ALLOSTERIC BCR-ABL PROTEOLYSIS TARGETING CHIMERIC COMPOUNDS” (YALE UNIVERSITY, priority 2019, published 2020)
